How the values were obtained:
beagle dogs = experiment: 28-day canine study (Example 9); type: in vivo; settings: 6 mg/kg (120 mg/m2) 5-FU, daily IV for four consecutive days
Protocol: In a 28-day canine study, single daily IV doses of saline, 6 mg/kg (120 mg/m2) 5-FU and ([…] (240 mg/m2) galactomannan or 4/2 mg/kg (80/40 mg/m2), 6/3.2 mg/kg (120/64 mg/m2) or 6/6 mg/kg (120/120 mg/m2) 5-FU/galactomannan were injected for four consecutive days to six groups of beagle dogs Mortality occurred in 13 of 48 dogs (five moribund sacrifices and eight found dead) between Study Days 2 and 5 (4/4 males on 5-FU; 3/4 males in the 4/2 mg/kg 5-FU/galactomannan group; 2/4 males and 1/4 females in the 6/3.2 and 6/6 mg/kg 5-FU/galactomannan groups, respectively).
Adverse effects in 5-FU groups included ataxia, prostration, vocalization, convulsions, tremors, hypersensitivity to touch, aggressive behavior (resulting in only three doses being given to the 6/3.2 5-FU/galactomanna group), emesis, salivation, soft stools and decreased red cell parameters and platelet counts. […] At the day 5 necropsy, treatment-related histological changes were largely limited to the 5-FU females. At day 29 necropsy, there were no remarkable changes in the survivors.

[1] = tested on: advanced colorectal cancer; settings: cited from earlier work
dogs = experiment: Acute toxicology, single IV injection in dogs; type: in vivo; settings: 5-FU 28.5 mg/kg, galactomannan 15 mg/kg, combination 28.5/15 mg/kg
Protocol: (§1) Acute toxicology studies of the galactomannan of the present invention were performed in mice, rats and dogs and subchronic toxicology studies were performed in rats and dogs. The following is a summary of the findings of these studies:
The surviving dogs remained clinically normal and had no treatment-related changes in body weight, feed consumption, ECG tracings, clinical pathology or gross tissue changes during the 21-day study period.

[2] = tested on: human colon tumor COLO 205; experiment: Efficacy study in COLO 205 human colon tumor xenografts, q4d×3 (Example 3); settings: 5-FU 75 mg/kg/dose
Protocol: The both studies were conducted as follows.
5-FU alone was administered i.v. on the same q4d×3 treatment schedule at doses of 75 mg/kg/dose (225 mg/m2/dose). 5-FU was formulated in saline fresh on each day of treatment at a concentration of 3.75 mg/mL, at pH 9.2. […] Both individual compounds and their mixture were administered according to exact body weight with injection volume being 0.2 mL/10 g body weight.
There were a total of four groups of 10 animals each, s.c.-implanted with COLO 205 human colon tumor xenografts.

rats [3] = experiment: 28-day subchronic rat study (Example 7); type: in vivo; settings: 48 mg/kg 5-FU, daily IV for four consecutive days
Protocol: In the 28-day subchronic rat study performed with research grade unfiltered galactomannan, single daily IV doses of 10 mL/kg saline, 48 mg/kg (288 mg/m2) 5-FU, 48 mg/kg (288 mg/m2) galactomannan or 24/13 mg/kg (144/78 mg/m2), 36/19 mg/kg (216/114 mg/m2) or 48/25 mg/kg (288/150 mg/m2) of the 5-FU/galactomannan combination were given at a rate of 1 mL/min for four consecutive days. The four doses of 5-FU produced mortality (7/8 with 48 mg/kg 5-FU; 1/8, 2/8 and 7/8 with 24/13, 36/19 and 48/25 mg/kg 5-FU/galactomannan, respectively).
Lesions in unscheduled-death animals were primarily due to the expected action of 5-FU on the hematopoietic and lymphoid systems, with secondary bacterial invasion and disseminated hemorrhage due to effects on coagulation. At the study day 5 necropsy, lesions included pronounced hypocellularity of the bone marrow, lymphoid atrophy of the thymus and atrophy of villi in the various segments of the small intestine (all considered due to the expected action of 5-FU). With the exception of the mild granulomatous foci in the lungs, treatment-related histopathological lesions were resolved in animals sacrificed at study day 29 (only one female survived in Group 2 and Group 6).

rats [4] = experiment: Acute toxicology, single IV dose in rats; type: in vivo; settings: 5-FU 140 mg/kg, galactomannan 72 mg/kg, combination 140/72 mg/kg, n=5/sex/group
Protocol: as §1
In rats (n=5/sex/group), single IV doses of 140 mg/kg (840 mg/m2) 5-FU, 72 mg/kg (432 mg/m2) galactomannan or 140/72 mg/kg of the combination produced no deaths in any of the groups.
Toxic changes in body weight, feed consumption, and hematology were less severe in the rats injected with the combination, versus those injected with 5-FU alone.

[5] = tested on: COLO 205 human colon tumor xenografts; experiment: Efficacy and compatibility with leucovorin in COLO 205 human colon tumor xenografts, q4d×4 (Example 4); settings: GM 120 mg/kg/dose
Protocol: The principal differences with the study described in Example 3 were that (a) the galactomannan was from another source, of a different size (molecular weight) and with a different Man/Gal ratio, (b) there were four consecutive injections, not three, (c) there were four doses of the galactomannan tested, not one, (d) 5-FU was administered (i.v.) in 48 mg/kg/dose, not 75 mg/kg/dose, as in the first study, and (e) galactomannan (i.v. injection) was compared with leucovorin (oral gavage, administered two hours after 5-FU) in terms of efficacy and toxicity. […] 5-FU alone was administered i.v. on the same q4d×4 treatment schedule at dosages of 48 mg/kg/dose. 5-FU was formulated in saline fresh on each day of treatment at a concentration of 4.8 mg/mL, at pH 9.2. […] Leucovorin powder (clinical formulation, Leucovorin calcium for injection) was reconstituted with water for injection to yield a concentration of 10 mg/mL. On each day of treatment the stock solution was diluted with water for injection to yield a concentration of 2.5 mg/mL.
Two more combination-treatment groups were also included in the study. One group of mice was treated with 5-FU (48 mg/kg/dose, i.v., q4d×4), followed by oral gavage (p.o.) with leucovorin, administered two hours after 5-FU at a dosage of 25 mg/kg/dose. Another two groups of mice were treated with 5-FU in a combination with the galactomannan (48 mg/kg/dose and 120 mg/kg/dose, respectively, i.v., q4d×4), followed by p.o. leucovorin treatment, administered at a dosage of 25 mg/kg/dose two hours after 5-FU plus the galactomannan.
There were a total of nine groups of 10 animals each, s.c.-implanted with COLO 205 human colon tumor xenografts.

mice = experiment: Acute toxicology, single IV dose in mice; type: in vivo; settings: single IV dose 409 mg/kg (1227 mg/m2) 5-FU
Protocol: Acute toxicology studies of the galactomannan of the present invention were performed in mice, rats and dogs and subchronic toxicology studies were performed in rats and dogs. The following is a summary of the findings of these studies: […]

[6] = q4d×4, 5-FU 48 mg/kg/dose i.v., leucovorin oral 25 mg/kg/dose

Question: With O=c1[nH]cc(F)c(=O)[nH]1 [5-FU, 5-fluorouracil, reference compound] as the compound, how does the “mortality between Study Days 2 and 5” value (beagle dogs) read?
Answer: 4/4

Question: And the “patients with hand-foot syndrome” value ([1]; continuous infusion regimens)?
Answer: approximately 20%

Question: What about the death (dogs) of the same compound?
Answer: 2/2

Question: And the mean survival time ([2]; i.v. q4d×3, GM 120 mg/kg/dose)?
Answer: 23.7 days

Question: What about the “median to quadrupling of tumor volume” value ([2]; i.v. q4d×3, GM 120 mg/kg/dose) of the same compound?
Answer: 23.7 days

Question: And the “median tumor volume after 56 days of the study” value ([2]; i.v. q4d×3, GM 120 mg/kg/dose)?
Answer: 2254 mm3

Question: What about the “tumor regression after 56 days of the study” value ([2]; i.v. q4d×3, GM 120 mg/kg/dose) of the same compound?
Answer: no tumor regression

Question: What about the treatment-related deaths ([2]; i.v. q4d×3, GM 120 mg/kg/dose, 10 mice per group, within two weeks) of the same compound?
Answer: three of ten

Question: What about the “time required to quadruple tumor weight” value ([2]; intravenous, galactomannan 120 mg/kg/day (360 mg/m2)) of the same compound?
Answer: 23.5 days

Question: And the mortality (rats [3])?
Answer: 7/8

Question: And the deaths (rats [4])?
Answer: no deaths

Question: What about the “median to quadrupling of tumor volume” value ([5]; i.v. q4d×4, 5-FU 48 mg/kg/dose) of the same compound?
Answer: 8.7 days

Question: And the “median tumor volume after 13 days” value ([5]; i.v. q4d×4, 5-FU 48 mg/kg/dose)?
Answer: 800 mm3

Question: And the “median days to quadrupling of tumor weight” value [5, 6]?
Answer: 8.7 days

Question: And the “tumor weight at Day 13 from treatment initiation, mean” value [5, 6]?
Answer: 734 mg

Question: And the “tumor weight at Day 13 from treatment initiation, median” value [5, 6]?
Answer: 800 mg

Question: And the death (mice)?
Answer: 3/5

Question: And the time of death (mice)?
Answer: 13 to 16 days

Question: With O=C1[O][Pt]2([NH][C@@H]3CCCC[C@H]3[NH]2)[O]C1=O [Oxaliplatin] as the compound, how does the “single agent response rate” value ([1]; previously treated colorectal cancer patients) read?
Answer: 10%
